Laboratory results taken from PubChem BioAssay (NCI).
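Protocol summary: plate cells (96-well), add compound at 5 concentrations, incubate 48 h, interpolate endpoints linearly. GI50 = concentration required for 50% inhibition of growth. TGI is the concentration that stops growth completely.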

Columns and labels:
Assay in all cases: NCI tumour cell line growth inhibition, 48 h
786-0 renal = test system: 786-0 renal
A498 renal = test system: A498 renal
A549 NSCLC = test system: A549 NSCLC
ACHN renal = test system: ACHN renal
BT-549 breast = test system: BT-549 breast
CCRF-CEM leukemia = test system: CCRF-CEM leukemia
COLO 205 colon = test system: COLO 205 colon
DU-145 prostate = test system: DU-145 prostate
HCC-2998 colon = test system: HCC-2998 colon
HCT-116 colon = test system: HCT-116 colon
HCT-15 colon = test system: HCT-15 colon
HL-60(TB) leukemia = test system: HL-60(TB) leukemia
HOP-62 NSCLC = test system: HOP-62 NSCLC
HOP-92 NSCLC = test system: HOP-92 NSCLC
HT29 colon = test system: HT29 colon
IGROV1 ovarian = test system: IGROV1 ovarian
K-562 leukemia = test system: K-562 leukemia
KM12 colon = test system: KM12 colon
LOX IMVI melanoma = test system: LOX IMVI melanoma
M14 melanoma = test system: M14 melanoma
MALME-3M melanoma = test system: MALME-3M melanoma
MCF7 breast = test system: MCF7 breast
MDA-MB-231 breast = test system: MDA-MB-231 breast
MDA-MB-435 = test system: MDA-MB-435
MOLT-4 leukemia = test system: MOLT-4 leukemia
NCI-H23 lung = test system: NCI-H23 lung
NCI-H460 lung = test system: NCI-H460 lung
NCI-H522 lung = test system: NCI-H522 lung
NCI/ADR-RES ovarian = test system: NCI/ADR-RES ovarian
OVCAR-3 ovarian = test system: OVCAR-3 ovarian
OVCAR-4 ovarian = test system: OVCAR-4 ovarian
OVCAR-5 ovarian = test system: OVCAR-5 ovarian
OVCAR-8 ovarian = test system: OVCAR-8 ovarian
RPMI-8226 leukemia = test system: RPMI-8226 leukemia
RXF 393 renal = test system: RXF 393 renal
SF-268 CNS = test system: SF-268 CNS
SF-295 CNS = test system: SF-295 CNS
SF-539 CNS = test system: SF-539 CNS
SK-MEL-2 melanoma = test system: SK-MEL-2 melanoma
SK-MEL-28 melanoma = test system: SK-MEL-28 melanoma
SK-MEL-5 melanoma = test system: SK-MEL-5 melanoma
SK-OV-3 ovarian = test system: SK-OV-3 ovarian
SN12C renal = test system: SN12C renal
SNB-19 CNS = test system: SNB-19 CNS
SNB-75 CNS = test system: SNB-75 CNS
SR leukemia = test system: SR leukemia
SW-620 colon = test system: SW-620 colon
T-47D breast = test system: T-47D breast
TK-10 renal = test system: TK-10 renal
U251 CNS = test system: U251 CNS
UACC-257 melanoma = test system: UACC-257 melanoma
UACC-62 melanoma = test system: UACC-62 melanoma
UO-31 renal = test system: UO-31 renal

## O=C1C=C(N2CC2)c2ccccc2C1=O
786-0 renal
  GI50: 1830 nM
  TGI: 3280 nM
A498 renal
  GI50: 1360 nM
  TGI: 2840 nM
A549 NSCLC
  GI50: 2070 nM
  TGI: 4700 nM
ACHN renal
  GI50: 1580 nM
  TGI: 2960 nM
BT-549 breast
  GI50: 1400 nM
  TGI: 2730 nM
CCRF-CEM leukemia
  GI50: 2320 nM
  TGI: 6230 nM
COLO 205 colon
  GI50: 2010 nM
  TGI: 3490 nM
DU-145 prostate
  GI50: 1340 nM
  TGI: 2660 nM
HCC-2998 colon
  GI50: 1760 nM
  TGI: 3860 nM
HCT-116 colon
  GI50: 1470 nM
  TGI: 2900 nM
HCT-15 colon
  GI50: 1850 nM
  TGI: 3790 nM
HL-60(TB) leukemia
  GI50: 2680 nM
  TGI: 6540 nM
HOP-62 NSCLC
  GI50: 1740 nM
  TGI: 3130 nM
HOP-92 NSCLC
  GI50: 1630 nM
  TGI: 3410 nM
HT29 colon
  GI50: 2580 nM
  TGI: 5570 nM
IGROV1 ovarian
  GI50: 1790 nM
  TGI: 3230 nM
K-562 leukemia
  GI50: 2600 nM
  TGI: 5660 nM
KM12 colon
  GI50: 1780 nM
  TGI: 3270 nM
LOX IMVI melanoma
  GI50: 2110 nM
  TGI: 13000 nM
M14 melanoma
  GI50: 1630 nM
  TGI: 3040 nM
MALME-3M melanoma
  GI50: 1930 nM
  TGI: 3390 nM
MCF7 breast
  GI50: 1480 nM
  TGI: 3760 nM
MDA-MB-231 breast
  GI50: 2050 nM
  TGI: 5110 nM
MDA-MB-435
  GI50: 778 nM
  TGI: 2230 nM
MOLT-4 leukemia
  GI50: 1990 nM
  TGI: 5770 nM
NCI-H23 lung
  GI50: 1840 nM
  TGI: 7170 nM
NCI-H460 lung
  GI50: 1710 nM
  TGI: 3890 nM
NCI-H522 lung
  GI50: 1420 nM
  TGI: 2930 nM
NCI/ADR-RES ovarian
  GI50: 1940 nM
  TGI: 5830 nM
OVCAR-3 ovarian
  GI50: 1770 nM
  TGI: 3270 nM
OVCAR-4 ovarian
  GI50: 1480 nM
  TGI: 2800 nM
OVCAR-5 ovarian
  GI50: 2030 nM
  TGI: 3680 nM
OVCAR-8 ovarian
  GI50: 1460 nM
  TGI: 2860 nM
RPMI-8226 leukemia
  GI50: 1810 nM
  TGI: 5130 nM
RXF 393 renal
  GI50: 1640 nM
  TGI: 3080 nM
SF-268 CNS
  GI50: 1790 nM
  TGI: 3710 nM
SF-295 CNS
  GI50: 1630 nM
  TGI: 3120 nM
SF-539 CNS
  GI50: 1830 nM
  TGI: 3340 nM
SK-MEL-2 melanoma
  GI50: 2280 nM
  TGI: 4340 nM
SK-MEL-28 melanoma
  GI50: 1770 nM
  TGI: 3170 nM
SK-MEL-5 melanoma
  GI50: 1600 nM
  TGI: 3040 nM
SK-OV-3 ovarian
  GI50: 1920 nM
  TGI: 3410 nM
SN12C renal
  GI50: 1760 nM
  TGI: 3220 nM
SNB-19 CNS
  GI50: 1830 nM
  TGI: 3350 nM
SNB-75 CNS
  GI50: 1570 nM
  TGI: 3120 nM
SR leukemia
  GI50: 1210 nM
  TGI: 4780 nM
SW-620 colon
  GI50: 1340 nM
  TGI: 2920 nM
T-47D breast
  GI50: 1880 nM
  TGI: 4170 nM
TK-10 renal
  GI50: 2150 nM
  TGI: 3640 nM
U251 CNS
  GI50: 1550 nM
  TGI: 3010 nM
UACC-257 melanoma
  GI50: 1690 nM
  TGI: 3100 nM
UACC-62 melanoma
  GI50: 1790 nM
  TGI: 3250 nM
UO-31 renal
  GI50: 1510 nM
  TGI: 2870 nM
